Experimental data taken from patent publication US20220154156A1, “PROTEINS AND METHODS FOR DISRUPTING BACTERIAL COMMUNICATION” (REGENTS OF THE UNIVERSITY OF MINNESOTA, priority 2019, published 2022).
Read-outs that look alike come from different tables or passages of the source.

Legend:
[1] = test system: Geobacillus caldoxylosilyticus GcL (SEQ ID NO: 1) variant GcL 4 (C147S/H178D/L183E/M244A); assay: Lactonase assay of variant GcL 4; type: biochemical; settings: for catalytic proficiency compared with the wt enzyme: GcL 4 vs GcL wt
Method: (§1) Kinetic measurements. The determination of GcL catalytic efficiency was performed by using a microplate reader (Synergy HTX, BioTek, USA) and the software Gen5.1 over a range of substrates (FIG. 2). The reactions were operate in a 96-well plate at a path length of 5.8 mm for a 200 μl reaction volume at room temperature. The catalytic parameters were achieved by fitting the data to Michaelis-Menten equation with the Graph-Pad Prism 5 software. When, Vmax was not reached, the catalytic efficiency was determined by fitting the linear part of Michaelis-Menten plot to a linear regression using Graph-Pad Prism 5.
(§2) Lactonase assay. The AHL lactonolysis consisting in the opening of the lactone ring generates a proton, and leads to an acidification of the media. This property allowed the characterization of the lactonases by using a pH indicator assay. To perform the experiment 5 μl of enzyme were added to a solution containing 10 μl of substrates at various concentrations and 185 μl of lactonase buffer (2.5 mM Bicine pH 8.3, 150 mM NaCl, 0.2 mM CoCl2, 0.2 mM cresol purple, 0.5% DMSO). This assay was performed at 25° C. and the time course of the lactones hydrolysis was recorded at 577 nm. The characterization of the enzyme was proceeding against a large panel of AHLs: C4-AHL, C6-AHL, C8-AHL, C10-AHL, 3-oxo-C8-AHL and against γ-Butyrolactone, γ-Heptalactone, γ-Nonalactone, γ-Decanolactone, δ-Valerolactone, δ-Octanolactone, δ-Nonalactone, δ-Decalactone, ε-Caprolactone, ε-Decalactone, Whiskey lactone.
We determined the ability of these two variants to hydrolyze a wide range of lactones as substrates, using the assay described in the previous chapter. GcL 4 was assayed against substrates C4 AHIL, C8 AHIL, 3-oxo-C8 AHL, 3-oxo-C12 AHL, γ-Butyrolactone, γ-Nonalactone, γ-Decanolactone, δ-Valerolactone, δ-Octanolactone, δ-Decalactone, ε-Caprolactone, ε-Decalactone and Whiskey Lactone, while GcL […] was assayed against C4 AHL, C8 AHL, 3-oxo-C8 AHL, 3-oxo-C12 AHIL, γ-Butyrolactone, γ-Heptalactone, γ-Nonalactone, γ-Decanolactone, δ-Valerolactone, δ-Nonalactone, δ-Decalactone, ε-Caprolactone, ε-Decalactone and Whiskey Lactone (Table 6).

[2] = test system: Geobacillus caldoxylosilyticus GcL (SEQ ID NO: 1) variant GcL 14 (Q41P/S66A/S81A/T91S/R111K/F141/A144T/C147S/V1751/H178D/I182L/L183E/M244A/N245K); assay: Lactonase assay of variant GcL 14; type: biochemical; settings: for catalytic proficiency compared with the wt enzyme: GcL 14 vs GcL wt
[3] = test system: Geobacillus caldoxylosilyticus lactonase GcL, wild type, SEQ ID NO: 1; settings: cited from earlier work
[4] = test system: Geobacillus caldoxylosilyticus lactonase GcL, wild type, SEQ ID NO: 1; assay: Lactonase assay (pH indicator, cresol purple) of GcL wt; type: biochemical; settings: 25° C., pH 8.3; Table 4, substrates without asterisk
Method: as §1, §2

[5] = test system: corrosion tubercles on steel coupons; assay: Biocorrosion of coated steel coupons in Duluth-Superior Harbor water, 8 weeks; design: concentration or dose not given beside the values; settings: silica gel coating, two months in DSH water
Method: The steel coupons were washed with soap water, lightly brushed for a few seconds with a test tube brush, and then rinsed with Milli-Q water to remove any loose material. Each coupon was designated with a unique number and weighed before being randomly assigned to a specific experimental treatment.
Each compound or enzyme was added to 5 ml of the silica gel matrix to develop different coating treatments. These coatings were applied by dipping coupons into the appropriate gel mixture for 1 minute, and then the coating on the coupon surface was air-dried at room temperature for 2 hours.
Six treatments and three controls were investigated for corrosion rate and changes in bacterial communities (Table 10). Each treatment or control contained three replicate steel coupons. After the triplicate steel coupons were coated with each biochemical, enzyme or bacterial treatment, they were incubated in experimental microcosms constructed from 10-gallon glass aquaria (Aqueon Glass, 50.8 cm×25.4 cm×30.5 cm) (FIG. 24). Each microcosm was equipped with an aquarium pump (Aquarium Systems Mini-Jet 404) to constantly circulate the water (˜2 L hr−1), and covered with a piece of acrylic with one corner cut out to allow gas exchange. The coupons were hold with plastic holders and immersed in water taken from the DSH for 8 weeks and then recovered for analyses.
The coupons in each treatment was photographed by the end of the experiment. Biocorrosion was evaluated by the number and coverage of corrosion tubercles, and also by imaging of coupon surfaces with an environmental scanning electron microscope (ESEM). The coupon images were captured with DSLR camera immediately after being removed from the harbor water, and then tubercle numbers and total area in digital images were measured using the analyze menu within ImageJ software (NIH, Bethesda, Md., USA). Surface roughness measurements were also made after the exposed coupons were cleaned with ASTM G1-90 iron and steel chemical cleaning procedure (2 min in 37% HCl, 50 g/L SnCl2). A Hitachi TM-3030 ESEM was used to view details of the cleaned coupon surface and the 3D-View software was used to generate surface roughness measurements (SRa). Statistics analysis (T-tests) of the tubercle numbers, coverage and surface roughness were performed using Microsoft Excel software.

[6] = Paraoxonase activity of SsoPox variants after incubation at 80° C.; type: physicochemical; settings: compared with wt enzyme and SsoPox W263I
[7] = Enzymatic characterization of SsoPox 6 and SsoPox 19; type: biochemical; settings: esters, lactones and phosphotriesters; compared with wt
Source text: We determined the ability of these two variants to hydrolyze a wide range of substrates, including esters, lactones and phosphotriesters (FIG. 23).

[8] = Table 4, substrates marked *, Data from^17

## CCCCCC(=O)CC(=O)N[C@H]1CCOC1=O [3-oxo-C8-AHL]
[1]; GcL 4, Table 6
  Km: 1090 ± 280 nM
  kcat: 76.4 ± 3.87 s⁻¹
[2]; GcL 14, Table 6
  Km: 290 ± 80 nM
  kcat: 76.00 ± 4.04 s⁻¹
[3]; [8]
  Km: 2.19 ± 0.37 µM
  kcat: 9.48 ± 0.35 s⁻¹

## CCCCCCCCCC(=O)CC(=O)N[C@H]1CCOC1=O [3-oxo-C12 AHL]
[2]; GcL 14, Table 6
  Km: 500 ± 120 nM
  kcat: 15.88 ± 0.45 s⁻¹

## CCCC(=O)N[C@H]1CCOC1=O [C4-AHL]
[1]; GcL 4
  Km: ~1000 nM
[1]; GcL 4, Table 6
  Km: 750 ± 240 nM
  kcat: 18.25 ± 0.85 s⁻¹
[2]; GcL 14
  Km: ~1000 nM
[2]; GcL 14, Table 6
  Km: 920 ± 270 nM
  kcat: 15.01 ± 0.61 s⁻¹
[3]; [8]
  Km: 229 ± 57 µM
  kcat: 19.06 ± 1.51 s⁻¹
[3]; wt enzyme, C4 AHL marked * (ref 17) in Table 4
  Km: ~230 µM

## CCCCCC(=O)N[C@H]1CCOC1=O [C6-AHL]
[3]; [8]
  Km: 7.97 ± 1.89 µM
  kcat: 8.95 ± 0.48 s⁻¹

## CCCCCCCC(=O)N[C@H]1CCOC1=O [C8-AHL]
[1]; GcL 4, Table 6
  Km: 810 ± 200 nM
[2]; GcL 14, Table 6
  Km: 1320 ± 340 nM
  kcat: 18.38 ± 0.86 s⁻¹
[4]
  Km: 3.12 ± 0.75 µM
  kcat: 1.29 ± 0.04 s⁻¹

## CCCCCCCCCC(=O)NC1CCOC1=O (centres unmarked) [C10-AHL]
[3]; [8]
  Km: 1.45 ± 0.47 µM
  kcat: 5.48 ± 0.37 s⁻¹

## CCCCC1OC(=O)CC1C (centres unmarked) [Whiskey lactone]
[1]; GcL 4, Table 6
  kcat: 8.4 ± 0.39 s⁻¹
[1]
  catalytic proficiency compared with the wt enzyme: similar
[2]; GcL 14, Table 6
  Km: 14000 ± 3740 nM
  kcat: 7.98 ± 0.63 s⁻¹
[2]
  catalytic proficiency compared with the wt enzyme: similar
[4]
  Km: 0.67 ± 0.21 µM
  kcat: 9.34 ± 0.39 s⁻¹

## [Mg+2].[O-][O-] [magnesium peroxide]
[5]
  reduction of the number (formation) of corrosion tubercles: 36%

## O=C1CCCO1 [γ-Butyrolactone]
[1]; GcL 4, Table 6
  Km: 1990 ± 450 nM
  kcat: 8.42 ± 0.42 s⁻¹
[2]; GcL 14, Table 6
  Km: 5900 ± 1670 nM
  kcat: 9.89 ± 0.75 s⁻¹
[4]
  Km: 21.1 ± 7.6 µM
  kcat: 2.49 ± 0.15 s⁻¹

## CCCCCCC1CCC(=O)O1 (centres unmarked) [γ-Decanolactone]
[1]; GcL 4, Table 6
  Km: 1310 ± 280 nM
  kcat: 22.24 ± 1.10 s⁻¹
[2]; GcL 14, Table 6
  Km: 320 ± 140 nM
  kcat: 13.7 ± 0.73 s⁻¹
[4]
  Km: 7.14 ± 1.03 µM
  kcat: 2.69 ± 0.11 s⁻¹

## CCCC1CCC(=O)O1 (centres unmarked) [γ-Heptalactone]
[2]; GcL 14, Table 6
  Km: 2770 ± 530 nM
  kcat: 20.95 ± 0.93 s⁻¹
[4]
  Km: 2.01 ± 0.71 µM
  kcat: 1.77 ± 0.06 s⁻¹

## CCCCCC1CCC(=O)O1 (centres unmarked) [γ-Nonalactone]
[1]; GcL 4, Table 6
  Km: 2540 ± 970 nM
  kcat: 18.3 ± 0.90 s⁻¹
[1]
  catalytic proficiency compared with the wt enzyme: similar
[2]; GcL 14, Table 6
  Km: 9090 ± 2200 nM
  kcat: 23.61 ± 1.40 s⁻¹
[2]
  catalytic proficiency compared with the wt enzyme: similar
[4]
  Km: 11.6 ± 3.1 µM
  kcat: 18.14 ± 0.9 s⁻¹

## CCCCCC1CCCC(=O)O1 (centres unmarked) [δ-Decalactone]
[1]; GcL 4, Table 6
  Km: 5540 ± 130 nM
  kcat: 10.28 ± 0.76 s⁻¹
[1]
  catalytic proficiency compared with the wt enzyme: similar
[2]; GcL 14, Table 6
  Km: 320 ± 140 nM
  kcat: 13.7 ± 0.73 s⁻¹
[2]
  catalytic proficiency compared with the wt enzyme: similar
[4]
  Km: 3.13 ± 0.9 µM
  kcat: 4.1 ± 0.18 s⁻¹

## CCCCC1CCCC(=O)O1 (centres unmarked) [δ-Nonalactone]
[2]; GcL 14, Table 6
  Km: 9090 ± 2200 nM
  kcat: 23.61 ± 1.40 s⁻¹
[4]
  Km: 8.05 ± 2.5 µM
  kcat: 2.01 ± 0.14 s⁻¹

## CCCC1CCCC(=O)O1 (centres unmarked) [δ-Octanolactone]
[1]; GcL 4, Table 6
  Km: 1920 ± 540 nM
  kcat: 22.01 ± 1.17 s⁻¹
[4]
  Km: 18.3 ± 7 µM
  kcat: 12.58 ± 0.85 s⁻¹

## O=C1CCCCO1 [δ-Valerolactone]
[1]; GcL 4, Table 6
  Km: 3130 ± 100 nM
  kcat: 11.94 ± 1.03 s⁻¹
[2]; GcL 14, Table 6
  Km: 1120 ± 120 nM
  kcat: 22.13 ± 0.41 s⁻¹
[4]
  Km: 5.67 ± 0.94 µM
  kcat: 1.27 ± 0.03 s⁻¹

## O=C1CCCCCO1 [ε-Caprolactone]
[1]; GcL 4, Table 6
  Km: 1300 ± 490 nM
  kcat: 12.63 ± 0.95 s⁻¹
[2]; GcL 14, Table 6
  Km: 2490 ± 670 nM
  kcat: 23.74 ± 1.26 s⁻¹
[4]
  Km: 10.6 ± 3.2 µM
  kcat: 8.79 ± 0.43 s⁻¹

## CCCCC1CCCCC(=O)O1 (centres unmarked) [ε-Decalactone]
[1]; GcL 4, Table 6
  Km: 1410 ± 300 nM
  kcat: 6.3 ± 0.29 s⁻¹
[1]
  catalytic proficiency compared with the wt enzyme: similar
[2]; GcL 14, Table 6
  Km: 7980 ± 2470 nM
  kcat: 10.41 ± 0.85 s⁻¹
[2]
  catalytic proficiency compared with the wt enzyme: similar
[4]
  Km: 1.05 ± 0.38 µM
  kcat: 1.01 ± 0.04 s⁻¹

B1: SsoPox 6: SsoPox variant R2K/S10E/S13P/K14R/V91I/L107N, SEQ ID NO:12 (protein)
chain: MKIPLVGKDEIEPRDIGFTLIHEHLRVFSEAVRQQWPHLYNEDEEFRNAVNEVKRAMQFGVKTIVDPTVMGLGRDIRFMEKVVKATGINLIAGTGIYIYIDLPFYFNNRSIDEIADLFIHDIKEGIQGTLNKAGFVKIAADEPGITKDVEKVIRAAAIANKETKVPIITHSNAHNNTGLEQQRILTEEGVDPGKILIGHLGDTDNIDYIKKIADKGSFIGLDRYGLDLFLPVDKRNETTLRLIKDGYSDKIMISHDYCCTIDWGTAKPEYKPKLAPRWSITLIFEDTIPFLKRNGVNEEVIATIFKENPKKFFS
modifications: SsoPox6 variant
[6]
  paraoxon hydrolysis after incubation of different times at 80° C.: withstanding better the incubation at 80 °C than the wt enzyme and SsoPox W263I
[7]
  activity levels: extremely similar to those of the wt enzyme

B2: SsoPox 19: SsoPox variant with 19 node 55 mutations, SEQ ID NO:13 (protein)
chain: MKIPLVGKDEIEPREMGFTLIHEHLRVFSEAVRQQWPHLYNEDEEFRNAVNEVKTAMSYGVKTIVDPTVMGLGRDIRFMEKVVKATGINVIAATGIYIYTDLPFYFNNRSIDEIADLFIHDIKEGIQGTNNKAGFVKVAADEPGITKDVEKVIRAAAIAHKETKVPIITHSNAHNNTGLEQQRILMEEGVDPGKILIGHLGDTDNIDYIKKIADKGSFIGLDRYGLDLFLPVDKRNETTLKLIKDGYSDKIMISHDYCCTIDWGTAKPEYKPKLAPRWSITLIFEDTIPFLKRNGVNEEVIATIFKENPKKFFS
modifications: SsoPox19 variant
[6]
  paraoxon hydrolysis after incubation of different times at 80° C.: withstanding better the incubation at 80 °C than the wt enzyme and SsoPox W263I
[7]
  activity levels: extremely similar to those of the wt enzyme
